Results reported in the NIST ThermoML archive (doi:10.1021/je100835n).
Numbers after ± are expanded uncertainties.

Settings: Liquid, Gas chromatography

SMILES	vapor or sublimation pressure (358.15 K)	vapor or sublimation pressure (368.15 K)	vapor or sublimation pressure (378.15 K)	vapor or sublimation pressure (388.15 K)	vapor or sublimation pressure (398.15 K)	vapor or sublimation pressure (408.15 K)	vapor or sublimation pressure (418.15 K)	vapor or sublimation pressure (308.15 K)	vapor or sublimation pressure (318.15 K)	vapor or sublimation pressure (328.15 K)	vapor or sublimation pressure (338.15 K)	vapor or sublimation pressure (348.15 K)	vapor or sublimation pressure (428.15 K)	vapor or sublimation pressure (438.15 K)
C[Si]1(C)O[Si](C)(C)O[Si](C)(C)O[Si](C)(C)O[Si](C)(C)O[Si](C)(C)O[Si](C)(C)O[Si](C)(C)O[Si](C)(C)O[Si](C)(C)O1 [icosamethylcyclodecasiloxane]	0.0008201 ± 0.00017 kPa	0.002003 ± 0.00042 kPa	0.004666 ± 0.00099 kPa	0.01041 ± 0.0022 kPa	0.02229 ± 0.0047 kPa	0.046 ± 0.0098 kPa	0.09169 ± 0.019 kPa	–	–	–	–	–	–	–
C[Si]1(C)O[Si](C)(C)O[Si](C)(C)O[Si](C)(C)O1 [octamethylcyclotetrasiloxane]	3.289 ± 0.7 kPa	5.113 ± 1.1 kPa	–	–	–	–	–	0.2359 ± 0.05 kPa	0.4269 ± 0.091 kPa	0.7452 ± 0.16 kPa	1.259 ± 0.27 kPa	2.063 ± 0.44 kPa	–	–
C[Si](C)(C)O[Si](C)(C)O[Si](C)(C)O[Si](C)(C)O[Si](C)(C)O[Si](C)(C)O[Si](C)(C)O[Si](C)(C)O[Si](C)(C)O[Si](C)(C)O[Si](C)(C)C [tetracosamethylundecasiloxane]	–	–	0.0005391 ± 0.00011 kPa	0.001446 ± 0.00031 kPa	0.003689 ± 0.00078 kPa	0.008993 ± 0.0019 kPa	0.02101 ± 0.0045 kPa	–	–	–	–	–	0.04716 ± 0.01 kPa	0.102 ± 0.022 kPa
C[Si](C)(C)O[Si](C)(C)O[Si](C)(C)O[Si](C)(C)O[Si](C)(C)C [dodecamethylpentasiloxane]	0.3011 ± 0.064 kPa	0.5114 ± 0.11 kPa	0.8448 ± 0.18 kPa	1.36 ± 0.29 kPa	2.137 ± 0.45 kPa	3.284 ± 0.7 kPa	–	–	–	–	0.09498 ± 0.02 kPa	0.1719 ± 0.036 kPa	–	–
C[Si]1(C)O[Si](C)(C)O[Si](C)(C)O[Si](C)(C)O[Si](C)(C)O[Si](C)(C)O[Si](C)(C)O1 [tetradecamethylcycloheptasiloxane]	0.04349 ± 0.0092 kPa	0.08542 ± 0.018 kPa	0.1619 ± 0.034 kPa	0.2968 ± 0.063 kPa	0.528 ± 0.11 kPa	0.9129 ± 0.19 kPa	1.538 ± 0.33 kPa	–	–	–	0.01 ± 0.0021 kPa	0.0213 ± 0.0045 kPa	–	–
C[Si](C)(C)O[Si](C)(C)O[Si](C)(C)O[Si](C)(C)O[Si](C)(C)O[Si](C)(C)O[Si](C)(C)O[Si](C)(C)O[Si](C)(C)O[Si](C)(C)O[Si](C)(C)O[Si](C)(C)O[Si](C)(C)C [octacosamethyltridecasiloxane]	–	–	–	–	0.0004326 ± 9.2e-05 kPa	0.001205 ± 0.00026 kPa	0.003194 ± 0.00068 kPa	–	–	–	–	–	0.008092 ± 0.0017 kPa	0.01965 ± 0.0042 kPa
C[Si]1(C)O[Si](C)(C)O[Si](C)(C)O[Si](C)(C)O[Si](C)(C)O[Si](C)(C)O[Si](C)(C)O[Si](C)(C)O1 [hexadecamethylcyclooctasiloxane]	0.01095 ± 0.0023 kPa	0.02337 ± 0.005 kPa	0.04791 ± 0.01 kPa	0.09466 ± 0.02 kPa	0.1807 ± 0.038 kPa	0.3344 ± 0.071 kPa	0.6006 ± 0.13 kPa	–	–	–	0.002101 ± 0.00045 kPa	0.004912 ± 0.001 kPa	–	–
C[Si](C)(C)O[Si](C)(C)O[Si](C)(C)O[Si](C)(C)O[Si](C)(C)O[Si](C)(C)O[Si](C)(C)O[Si](C)(C)O[Si](C)(C)C [eicosamethylnonasiloxane]	0.001098 ± 0.00023 kPa	0.002752 ± 0.00058 kPa	0.006569 ± 0.0014 kPa	0.015 ± 0.0032 kPa	0.03284 ± 0.007 kPa	0.0692 ± 0.015 kPa	0.1407 ± 0.03 kPa	–	–	–	–	0.0004156 ± 8.8e-05 kPa	0.2769 ± 0.059 kPa	0.5281 ± 0.11 kPa
C[Si]1(C)O[Si](C)(C)O[Si](C)(C)O[Si](C)(C)O[Si](C)(C)O[Si](C)(C)O[Si](C)(C)O[Si](C)(C)O[Si](C)(C)O1 [octadecamethylcyclononasiloxane]	0.002888 ± 0.00061 kPa	0.006628 ± 0.0014 kPa	0.01455 ± 0.0031 kPa	0.03069 ± 0.0065 kPa	0.06234 ± 0.013 kPa	0.1223 ± 0.026 kPa	0.2323 ± 0.049 kPa	–	–	–	0.0004734 ± 0.0001 kPa	0.0012 ± 0.00025 kPa	–	–
C[Si](C)(C)O[Si](C)(C)O[Si](C)(C)O[Si](C)(C)O[Si](C)(C)O[Si](C)(C)O[Si](C)(C)C [hexadecamethylheptasiloxane]	0.01804 ± 0.0038 kPa	0.03789 ± 0.008 kPa	0.07651 ± 0.016 kPa	0.149 ± 0.032 kPa	0.2806 ± 0.06 kPa	0.5124 ± 0.11 kPa	0.909 ± 0.19 kPa	–	–	–	0.003586 ± 0.00076 kPa	0.008232 ± 0.0017 kPa	1.57 ± 0.33 kPa	2.645 ± 0.56 kPa
C[Si]1(C)O[Si](C)(C)O[Si](C)(C)O[Si](C)(C)O[Si](C)(C)O1 [decamethylcyclopentasiloxane]	1.165 ± 0.25 kPa	2.011 ± 0.43 kPa	–	–	–	–	–	0.04458 ± 0.0095 kPa	0.09293 ± 0.02 kPa	0.1853 ± 0.039 kPa	0.3545 ± 0.075 kPa	0.6537 ± 0.14 kPa	–	–
C[Si]1(C)O[Si](C)(C)O[Si](C)(C)O[Si](C)(C)O[Si](C)(C)O[Si](C)(C)O1 [dodecamethylcyclohexasiloxane]	0.1789 ± 0.038 kPa	0.3228 ± 0.069 kPa	0.5646 ± 0.12 kPa	0.9595 ± 0.2 kPa	1.588 ± 0.34 kPa	2.563 ± 0.54 kPa	4.044 ± 0.86 kPa	–	–	–	0.04948 ± 0.01 kPa	0.09584 ± 0.02 kPa	–	–
C[Si](C)(C)O[Si](C)(C)O[Si](C)(C)O[Si](C)(C)O[Si](C)(C)O[Si](C)(C)C [tetradecamethylhexasiloxane]	0.07392 ± 0.016 kPa	0.1398 ± 0.03 kPa	0.2557 ± 0.054 kPa	0.4533 ± 0.096 kPa	0.7809 ± 0.17 kPa	1.31 ± 0.28 kPa	2.143 ± 0.45 kPa	–	–	–	0.01845 ± 0.0039 kPa	0.03767 ± 0.008 kPa	3.427 ± 0.73 kPa	5.364 ± 1.1 kPa
C[Si](C)(C)O[Si](C)(C)O[Si](C)(C)O[Si](C)(C)O[Si](C)(C)O[Si](C)(C)O[Si](C)(C)O[Si](C)(C)C [octadecamethyloctasiloxane]	0.004449 ± 0.00094 kPa	0.01022 ± 0.0022 kPa	0.02248 ± 0.0048 kPa	0.04747 ± 0.01 kPa	0.09653 ± 0.02 kPa	0.1896 ± 0.04 kPa	0.3605 ± 0.077 kPa	–	–	–	0.0007271 ± 0.00015 kPa	0.001846 ± 0.00039 kPa	0.6654 ± 0.14 kPa	1.194 ± 0.25 kPa
C[Si](C)(C)O[Si](C)(C)O[Si](C)(C)O[Si](C)(C)O[Si](C)(C)O[Si](C)(C)O[Si](C)(C)O[Si](C)(C)O[Si](C)(C)O[Si](C)(C)C [docosamethyldecasiloxane]	–	0.0007152 ± 0.00015 kPa	0.001861 ± 0.00039 kPa	0.00461 ± 0.00098 kPa	0.01091 ± 0.0023 kPa	0.02475 ± 0.0053 kPa	0.054 ± 0.011 kPa	–	–	–	–	–	0.1136 ± 0.024 kPa	0.231 ± 0.049 kPa
C[Si](C)(C)O[Si](C)(C)O[Si](C)(C)O[Si](C)(C)O[Si](C)(C)O[Si](C)(C)O[Si](C)(C)O[Si](C)(C)O[Si](C)(C)O[Si](C)(C)O[Si](C)(C)O[Si](C)(C)C [hexacosamethyldodecasiloxane]	–	–	–	0.0004593 ± 9.7e-05 kPa	0.001256 ± 0.00027 kPa	0.00327 ± 0.00069 kPa	0.008134 ± 0.0017 kPa	–	–	–	–	–	0.01939 ± 0.0041 kPa	0.04441 ± 0.0094 kPa
